Measured values reported in patent US5707615A, “Method of treating HIV infections with anti-viral formulations” (Merrell Pharmaceuticals Inc., priority 1997, dated 1998).

Legend:
[1] = tested on: influenza; conditions: cited from earlier work
[2] = tested on: HIV; conditions: cited from earlier work
[3] = tested on: GB8 virus in JM cells; test: Virus infection of JM cells with GB8 in the presence of test compounds: syncytia and P24 (Example II); conditions: Table II; for SYNCYTIA % / P24 %: % of control; for SYNCYTIA %: 2880 min; for P24 %: 5760 min
Procedure: Virus infection of JM cells was carried out in the presence of different concentrations of test compounds. JM cells (1×10^5) and 50-100 syncytial forming units of virus (GB8) were added to duplicate wells of a tissue culture plate containing 1 mL volumes of growth medium with or without drug. The plate was incubated for 2 days at 37° C. and then scored for the presence of syncytia. At the same time the cells were washed and the growth medium replaced. After a further two days incubation, the cell free supernatant fluids were harvested and assayed for levels of P24 viral core antigen using the Coulter™ HIV Antigen assay.

[4] = tested on: HIV strain RF; test: Ability to prevent virus-induced cell death using MT4 cells and strain RF (Example III); format: cell-based; conditions: MT4 cells, 7 days, MTT, 10080 min
Procedure: (§1) Various oligomers were dissolved in RPMI and were then assayed for anti-HIV activity by making doubling dilutions of the solutions across a 96 well microtitre plate. To each well were then added 5×10^4 cells and 100 TCID50 of virus and the plates incubated at 37° C. for 7 days. MTT was added to each well and the plates incubated for a further 2 hours. The blue formazan crystals were dissolved using acidic isopropanol, and the absorbance measured at 540 nm.

[5] = tested on: HIV-I (GB8); test: Pretreatment of JM cells and block of HIV-I (GB8) infection (Example IV); conditions: pretreated overnight at 20 μg/mL
Procedure: JM cells were pretreated overnight at 37° C. with different compounds at 20 μg/mL or left untreated. The cells were washed 3 times in RPMI medium and then infected with HIV-I (GB8) for 2 hours at room temperature. The cells were again washed 3 times in RPMI medium and resuspended in fresh medium prior to being distributed into duplicate wells and incubated at 37° C. After 2 days syncytia were scored and the cell free supernatant fluid harvested and assayed for P24 viral core antigen using the Coulter™ HIV antigen assay.

[6] = tested on: HIV-I, GB8; test: Ability to prevent syncytia formation and expression of P24 viral core antigen using JM cells and GB8 virus strain (Example I); format: cell-based; conditions: for P24 % CONTROL: 4320 min; for SYNCYTIA: after 3 days
Procedure: The virus was first incubated with an oligomer for 15 minutes and then the cells were added. After 2 hours adsorption, the virus innoculum was removed and the cells were washed three times to remove traces of input virus. Antiviral activity was determined after 3 days incubation by plotting the mean number of syncytia found in quadruple cultures against log10 concentration of anionic polymer or of other test compounds. The potency of an oligomer was also measured by assaying viral core antigen (P24 test-Abbott) in the supernatant fluid. Heparin, dextran sulfate, rs CD4, ATZ and/or ddC data, when included in any of the following Tables, are provided as positive controls.

[7] = tested on: MT4 cells; test: Toxicity to MT4 cells (TD50, Table IV, MTT); format: cell-based; conditions: MT4 cells, 7 days, MTT
Procedure: as §1

2-deoxy-2-fluoroglucose
viral protein glycosylation [1]: inhibited viral protein glycosylation

CCC(O)[C@H](N)C(=O)O (stereo partly drawn) [β-hydroxy-norvaline]
expression of HIV glycoproteins and formation of syncytia [2]: inhibit expression of HIV glycoproteins and block the formation of syncytia

poly{imino[2,2'-disulfo(1,1'-biphenyl)-4,4'-diyl]iminocarbonyl}, alpha-{[(4-methylphenyl)amino]carbonyl}-omega[(4-methylphenyl)amino]- [Example 1B]
SYNCYTIA (2 DAYS) MEAN ([3]; 0.01 μg/mL): 47 | SYNCYTIA % ([3]; 0.01 μg/mL): 112% | P24 ([3]; 0.03 μg/mL): 4.1 × 10^5 units/mL | SYNCYTIA (2 DAYS) MEAN ([3]; 0.03 μg/mL): 42 | SYNCYTIA % ([3]; 0.03 μg/mL): 100% | P24 % ([3]; 0.03 μg/mL): 100% | P24 ([3]; 0.1 μg/mL): 4.4 × 10^5 units/mL | SYNCYTIA (2 DAYS) MEAN ([3]; 0.1 μg/mL): 25 | SYNCYTIA % ([3]; 0.1 μg/mL): 58% | P24 % ([3]; 0.1 μg/mL): 100% | P24 ([3]; 0.3 μg/mL): 3.8 × 10^4 units/mL | SYNCYTIA (2 DAYS) MEAN ([3]; 0.3 μg/mL): 1 | SYNCYTIA % ([3]; 0.3 μg/mL): 2% | P24 % ([3]; 0.3 μg/mL): 11% | P24 ([3]; 1 μg/mL): 1.6 × 10^3 units/mL | SYNCYTIA (2 DAYS) MEAN ([3]; 1 μg/mL): 0 | SYNCYTIA % ([3]; 1 μg/mL): 0% | P24 % ([3]; 1 μg/mL): 0.4% | SYNCYTIA (2 DAYS) MEAN ([3]; 3 μg/mL): 0 | SYNCYTIA % ([3]; 3 μg/mL): 0% | SYNCYTIA (2 DAYS) MEAN ([3]; 10 μg/mL): 0 | SYNCYTIA % ([3]; 10 μg/mL): 0% | ED50 [4]: 2.2 mg/L | P24 [5]: 2790 pg/mL | MEAN SYNCYTIA ([5]; 2 days): 52 | P24 % ([5]; % of control, 2880 min): 10% | SYNCYTIA % ([5]; % of control, 2880 min): 44% | P24 ([6]; 0.6 μg/mL): 32820 pg/mL | P24 % CONTROL ([6]; 0.6 μg/mL): 0.1% | P24 ([6]; 1.25 μg/mL): 35890 pg/mL | P24 % CONTROL ([6]; 1.25 μg/mL): < 0.1% | P24 ([6]; 2.5 μg/mL): 365 pg/mL | P24 % CONTROL ([6]; 2.5 μg/mL): < 0.1% | SYNCYTIA ([6]; 2.5 μg/mL): 0 | P24 ([6]; 5.0 μg/mL): 465 pg/mL | P24 % CONTROL ([6]; 5.0 μg/mL): < 0.1% | SYNCYTIA ([6]; 5.0 μg/mL): 0 | TD50 [7]: > 100 µg/mL
